From publication PMC11992225, “Antibacterial compounds against non-growing and intracellular bacteria” (npj Antimicrobials and Resistance, 2025)
Converted amounts (≈) assume the structure as drawn. Where two headings read alike, the source gives them in different places.

Legend:
[1] = system: S. aureus DSM2569; test: MIC, standard microdilution assay, growing S. aureus; format: cell-based, Staphylococcus aureus; details: Staphylococcus aureus
How it was run: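 Each strain was exposed to serially diluted compound in broth, in triplicate. The media were TSB for Shigella; CA-MHB at pH 7.4 (HEPES 40 mM) for S. aureus, P. aeruginosa and UPEC; and, for UPEC only, low-pH LPM (pH 5.5, 30 mM MES).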

[2] = system: non-growing UPEC CFT073; test: Dilution-regrowth assay (screen, hit validation, dose-response) on stationary-phase UPEC; format: cell-based, Escherichia coli; details: for EC50: Escherichia coli; for OD600 at 6hr, Mean: after dilution into drug-free medium
How it was run: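 Regrowth (OD600 after 6 h, 37 °C) of diluted non-growing CFT073, following 24 h compound treatment of 24 h stationary cultures, defines activity relative to untreated control. Screen at 20 µM, validation at 20, 10, 5 µM (duplicates), dose–response in three biological replicates fitted by five-parameter logistic.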

[3] = system: non-growing P. aeruginosa DSM1117; test: Dose-dependent killing analysis (CFU spot-plating) of stationary-phase P. aeruginosa; format: cell-based, Pseudomonas aeruginosa; details: at 2.5 µM, 1:4 CA-MHB pH 7.4, 24 h treatment
Description: The cultures were grown and treated for 24 h in 1:4 CA-MHB (pH 7.4).
(§1) For survival analysis, bacteria were cultivated as described for the dose–response dilution-regrowth assay. Assays with UPEC were conducted at the CBCS screening facility using 96-well plates with a 200 μl sample volume, and compounds were dispensed using the Echo® (Labcyte) system. P. aeruginosa and S. aureus samples were treated according to the protocol used for the dilution-regrowth experiments. Treated samples were serially diluted 10-fold in PBS, and 10 μl drops were spot-plated onto rectangular LB agar plates using either a Beckman NXP robot (for UPEC) or an Integra VIAFLO96 electronic pipette (for P. aeruginosa and S. aureus). The LB agar plates were incubated overnight at 37 °C and scanned. Colonies were counted at the spots of the lowest dilution where individual colonies could be accurately distinguished. Each colony was manually marked on a separate image layer using the GNU Image Manipulation Program, and counted using NIST’s Integrated Colony Enumerator (NICE 1.4) software. The experiments were performed in three biological replicates.

[4] = system: non-growing UPEC CFT073; test: Dose-dependent killing analysis (CFU spot-plating) of stationary-phase UPEC; format: cell-based, Escherichia coli
Description: To differentiate between these scenarios, we used CFU counting by agar plating to assess the bactericidal effect on non-growing bacteria. […] Conversely, if no significant reduction in CFU is observed, the regrowth delay is due to PAE without killing. […] Fluoroquinolones are known to cause PAE after treatment of growing bacterial cultures.
as §1

[5] = E. coli in 1:4 CA-MHB (pH 7.4), 0.25 μM
[6] = E. coli in 1:4 CA-MHB (pH 7.4), 0.5 μM
[7] = E. coli in 1:4 CA-MHB (pH 7.4), 1 μM
[8] = E. coli in 1:4 CA-MHB (pH 7.4), 2.5 μM
[9] = E. coli in 1:4 CA-MHB (pH 7.4), 5 μM
[10] = E. coli in 1:4 CA-MHB (pH 7.4), 10 μM
[11] = E. coli in LPM (pH 5.5), 0.25 μM
[12] = E. coli in LPM (pH 5.5), 0.5 μM
[13] = E. coli in LPM (pH 5.5), 2.5 μM

O=C(O)c1cn(C2CC2)c2cc(N3CCNCC3)c(F)cc2c1=O [Ciprofloxacin]
MIC ([1]; DSM2569, S. aureus, CA-MHB pH 7.4, read-out: MIC (μM) CA-MHB): 2 µM (≈ 0.663 µg/mL) | EC50 ([2]; E. coli, pH 7.4, regrowth delay of non-growing bacteria, 1:4 CA-MHB, 24 h treatment, OD600 6 h after 2500-fold dilution, read-out: EC50): 1380 nM | reduction of bacterial counts, non-growing P. aeruginosa [3]: more than four

CS[C@H]1SC[C@H]2C(=O)N(C)[C@@H](C(C)C)C(=O)OC[C@@H](NC(=O)c3cnc4ccccc4n3)C(=O)N[C@@H](C)C(=O)N(C)[C@@H]1C(=O)N(C)[C@@H](C(C)C)C(=O)OC[C@@H](NC(=O)c1cnc3ccccc3n1)C(=O)N[C@@H](C)C(=O)N2C [Echinomycin]
MIC ([1]; DSM2569, pH 7.4, read-out: MIC (μM) CA-MHB): 2 µM (≈ 2.2 µg/mL) | OD600 at 6hr, Mean [2, 5]: 0.627 | OD600 at 6hr, Mean [2, 6]: 0.601 | OD600 at 6hr, Mean [2, 7]: 0.561 | OD600 at 6hr, Mean [2, 8]: 0.340 | OD600 at 6hr, Mean [2, 9]: 0.110 | OD600 at 6hr, Mean [2, 10]: 0.090 | OD600 at 6hr, Mean ([2]; E. coli in 1:4 CA-MHB (pH 7.4), 30 μM): 0.091 | OD600 at 6hr, Mean [2, 11]: 0.602 | OD600 at 6hr, Mean [2, 12]: 0.564 | OD600 at 6hr, Mean ([2]; E. coli in LPM (pH 5.5), 1 μM): 0.465 | OD600 at 6hr, Mean [2, 13]: 0.288 | OD600 at 6hr, Mean ([2]; E. coli in LPM (pH 5.5), 5 μM): 0.215 | OD600 at 6hr, Mean ([2]; E. coli in LPM (pH 5.5), 10 μM): 0.181 | OD600 at 6hr, Mean ([2]; E. coli in LPM (pH 5.5), 30 μM): 0.160 | EC50 ([2]; pH 5.5): 1530 nM | EC50 ([2]; pH 5.5, read-out: EC50 (regrowth inhibition curve, Fig. S4)): 1520 nM | EC50 ([2]; pH 7.4): 2400 nM | EC50 ([2]; pH 7.4, read-out: EC50 (regrowth inhibition curve, Fig. S4)): 2390 nM | Log10(CFU/ml), Replicate #1 [4, 5]: 9.431 Log10(CFU/ml) | Log10(CFU/ml), Replicate #2 [4, 5]: 8.699 Log10(CFU/ml) | Log10(CFU/ml), Replicate #3 [4, 5]: 8.505 Log10(CFU/ml) | Δlog10(CFU/ml) ([4]; E. coli in 1:4 CA-MHB (pH 7.4), 0.25 μM, average killing vs before treatment (8.977)): 0.099 log10(CFU/ml) | Log10(CFU/ml), Replicate #1 [4, 6]: 9.415 Log10(CFU/ml) | Log10(CFU/ml), Replicate #2 [4, 6]: 9.079 Log10(CFU/ml) | Log10(CFU/ml), Replicate #3 [4, 6]: 8.447 Log10(CFU/ml) | Δlog10(CFU/ml) ([4]; E. coli in 1:4 CA-MHB (pH 7.4), 0.5 μM, average killing vs before treatment (8.977)): -0.003 log10(CFU/ml) | Log10(CFU/ml), Replicate #1 [4, 7]: 9.380 Log10(CFU/ml) | Log10(CFU/ml), Replicate #2 [4, 7]: 9.114 Log10(CFU/ml) | Log10(CFU/ml), Replicate #3 [4, 7]: 8.398 Log10(CFU/ml) | Δlog10(CFU/ml) ([4]; E. coli in 1:4 CA-MHB (pH 7.4), 1 μM, average killing vs before treatment (8.977)): 0.013 log10(CFU/ml) | Log10(CFU/ml), Replicate #1 [4, 8]: 9.398 Log10(CFU/ml) | Log10(CFU/ml), Replicate #2 [4, 8]: 8.699 Log10(CFU/ml) | Log10(CFU/ml), Replicate #3 [4, 8]: 8.398 Log10(CFU/ml) | Δlog10(CFU/ml) ([4]; E. coli in 1:4 CA-MHB (pH 7.4), 2.5 μM, average killing vs before treatment (8.977)): 0.146 log10(CFU/ml) | Log10(CFU/ml), Replicate #1 [4, 9]: 9.362 Log10(CFU/ml) | Log10(CFU/ml), Replicate #2 [4, 9]: 8.477 Log10(CFU/ml) | Log10(CFU/ml), Replicate #3 [4, 9]: 8.477 Log10(CFU/ml) | Δlog10(CFU/ml) ([4]; E. coli in 1:4 CA-MHB (pH 7.4), 5 μM, average killing vs before treatment (8.977)): 0.205 log10(CFU/ml) | Log10(CFU/ml), Replicate #1 [4, 10]: 8.342 Log10(CFU/ml) | Log10(CFU/ml), Replicate #2 [4, 10]: 8.079 Log10(CFU/ml) | Log10(CFU/ml), Replicate #3 [4, 10]: 8.342 Log10(CFU/ml) | Δlog10(CFU/ml) ([4]; E. coli in 1:4 CA-MHB (pH 7.4), 10 μM, average killing vs before treatment (8.977)): 0.723 log10(CFU/ml) | Log10(CFU/ml), Replicate #1 [4, 11]: 6.778 Log10(CFU/ml) | Log10(CFU/ml), Replicate #2 [4, 11]: 7.114 Log10(CFU/ml) | Log10(CFU/ml), Replicate #3 [4, 11]: 8.398 Log10(CFU/ml) | Δlog10(CFU/ml) ([4]; E. coli in LPM (pH 5.5), 0.25 μM, average killing vs before treatment (7.350)): -0.080 log10(CFU/ml) | Log10(CFU/ml), Replicate #1 [4, 12]: 6.954 Log10(CFU/ml) | Log10(CFU/ml), Replicate #2 [4, 12]: 6.954 Log10(CFU/ml) | Log10(CFU/ml), Replicate #3 [4, 12]: 8.000 Log10(CFU/ml) | Δlog10(CFU/ml) ([4]; E. coli in LPM (pH 5.5), 0.5 μM, average killing vs before treatment (7.350)): 0.048 log10(CFU/ml) | Log10(CFU/ml), Replicate #1 ([4]; E. coli in LPM (pH 5.5), 1 μM): 6.954 Log10(CFU/ml) | Log10(CFU/ml), Replicate #2 ([4]; E. coli in LPM (pH 5.5), 1 μM): 7.255 Log10(CFU/ml) | Log10(CFU/ml), Replicate #3 ([4]; E. coli in LPM (pH 5.5), 1 μM): 8.301 Log10(CFU/ml) | Δlog10(CFU/ml) ([4]; E. coli in LPM (pH 5.5), 1 μM, average killing vs before treatment (7.350)): -0.153 log10(CFU/ml) | Log10(CFU/ml), Replicate #1 [4, 13]: 6.954 Log10(CFU/ml) | Log10(CFU/ml), Replicate #2 [4, 13]: 6.845 Log10(CFU/ml) | Log10(CFU/ml), Replicate #3 [4, 13]: 8.230 Log10(CFU/ml) | Δlog10(CFU/ml) ([4]; E. coli in LPM (pH 5.5), 2.5 μM, average killing vs before treatment (7.350)): 0.007 log10(CFU/ml) | Log10(CFU/ml), Replicate #1 ([4]; E. coli in LPM (pH 5.5), 5 μM): 6.778 Log10(CFU/ml) | Log10(CFU/ml), Replicate #2 ([4]; E. coli in LPM (pH 5.5), 5 μM): 7.342 Log10(CFU/ml) | Log10(CFU/ml), Replicate #3 ([4]; E. coli in LPM (pH 5.5), 5 μM): 8.204 Log10(CFU/ml) | Δlog10(CFU/ml) ([4]; E. coli in LPM (pH 5.5), 5 μM, average killing vs before treatment (7.350)): -0.091 log10(CFU/ml) | Log10(CFU/ml), Replicate #1 ([4]; E. coli in LPM (pH 5.5), 10 μM): 6.279 Log10(CFU/ml) | Log10(CFU/ml), Replicate #2 ([4]; E. coli in LPM (pH 5.5), 10 μM): 6.362 Log10(CFU/ml) | Log10(CFU/ml), Replicate #3 ([4]; E. coli in LPM (pH 5.5), 10 μM): 6.602 Log10(CFU/ml) | Δlog10(CFU/ml) ([4]; E. coli in LPM (pH 5.5), 10 μM, average killing vs before treatment (7.350)): 0.936 log10(CFU/ml)
